Conditions: Pulse-echo method

Cl [hydrogen chloride]
Liquid
Conditions | speed of sound [m/s]
218.3 K | 940
224.3 K | 910
229.2 K | 887
233.1 K | 865
243 K | 814
248 K | 790
252.9 K | 762
258 K | 734
263 K | 705
268 K | 676
273 K | 646

Fluid (supercritical or subcritical phases)
Conditions | speed of sound [m/s]
267 K, 7500 kPa | 735
269.9 K, 9700 kPa | 740
274.8 K, 13900 kPa | 751
279.8 K, 5500 kPa | 634
279.8 K, 18000 kPa | 761
284.8 K, 8500 kPa | 640
284.8 K, 22200 kPa | 773
289.7 K, 11800 kPa | 652
289.8 K, 26500 kPa | 783
292.9 K, 6900 kPa | 564
294.8 K, 15600 kPa | 666
294.8 K, 30800 kPa | 794
295 K, 8000 kPa | 567
299.8 K, 19200 kPa | 678
300 K, 11100 kPa | 582
300 K, 35100 kPa | 805
303.1 K, 37700 kPa | 810
305 K, 14200 kPa | 595
305 K, 22900 kPa | 690
305 K, 39300 kPa | 814
310 K, 17300 kPa | 608
310 K, 26300 kPa | 700
315 K, 20400 kPa | 621
315 K, 30000 kPa | 712
320 K, 10800 kPa | 425
320 K, 23500 kPa | 632
320 K, 33600 kPa | 722
325 K, 12900 kPa | 441
325 K, 26600 kPa | 643
325 K, 37200 kPa | 732
328 K, 39300 kPa | 738
330 K, 15100 kPa | 456
330 K, 29800 kPa | 654
335 K, 17200 kPa | 469
335 K, 32900 kPa | 665
340 K, 19300 kPa | 482
340 K, 36000 kPa | 675
345 K, 21500 kPa | 494
345 K, 39200 kPa | 685
350 K, 23700 kPa | 506
355 K, 25900 kPa | 517
359.9 K, 21500 kPa | 433
360 K, 28000 kPa | 527
365 K, 30200 kPa | 537
369.9 K, 24900 kPa | 454
370 K, 32400 kPa | 547
374.9 K, 34600 kPa | 556
379.9 K, 28400 kPa | 473
379.9 K, 36800 kPa | 565
385.9 K, 39400 kPa | 575
389.9 K, 31800 kPa | 491
394.9 K, 22700 kPa | 371
399.9 K, 12100 kPa | 324
399.9 K, 35300 kPa | 508
404.9 K, 24800 kPa | 386
409.9 K, 21600 kPa | 356
411.9 K, 39500 kPa | 526
414.9 K, 26900 kPa | 400
419.9 K, 13200 kPa | 339
419.9 K, 23100 kPa | 368
424.9 K, 29000 kPa | 414
434.9 K, 31000 kPa | 426
439.9 K, 14300 kPa | 355
439.9 K, 26100 kPa | 390
444.9 K, 33100 kPa | 438
459.9 K, 29100 kPa | 411
460 K, 15500 kPa | 369
460 K, 36100 kPa | 456
474.9 K, 39200 kPa | 472
479.9 K, 16500 kPa | 383
479.9 K, 32000 kPa | 430
